Test results from patent US8859543B2, “Imidazo[1,2-a]pyrazine derivatives and their use for the prevention or treatment of neurological, psychiatric and metabolic disorders and diseases” (Janssen Pharmaceutica NV, priority 2010, dated 2014).
Like-named read-outs stand apart in the source and are kept apart here.

Legend:
[1] = molecular target: PDE5A (Homo sapiens, UniProt O76074); assay: In vitro PDE selectivity assay, PDE5A; format: biochemical; conditions: Table 4a in vitro selectivity; read-out: IC50 PDE type 5A
Protocol: (§1) Rat recombinant PDE10A (rPDE10A2) was expressed in Sf9 cells using a recombinant rPDE10A baculovirus construct. Cells were harvested after 48 h of infection and the rPDE10A protein was purified by metal chelate chromatography on Ni-sepharose 6FF. […] The reaction was incubated for 60 min. at RT. […] After sedimentation of the beads during 30 min. the radioactivity was measured in a Perkin Elmer Topcount scintillation counter and results were expressed as cpm. For blank values the enzyme was omitted from the reaction and replaced by incubation buffer. […] The same assay principle is applied for the measurement of the affinity of the compound for other members of the PDE family with appropriate modifications in incubation buffer, substrate concentration, incubation time and stop solution.

[2] = molecular target: PDE11A (Homo sapiens, UniProt Q9HCR9); assay: In vitro PDE selectivity assay, PDE11A; format: biochemical; conditions: Table 4a in vitro selectivity; read-out: IC50 PDE type 11A
Protocol: as §1

[3] = molecular target: PDE6AB (Homo sapiens, UniProt P16499+P35913); assay: In vitro PDE selectivity assay, PDE6AB; format: biochemical; conditions: Table 4a in vitro selectivity; read-out: IC50 PDE type 6AB
Protocol: as §1

[4] = system: SCH-23390-induced hypolocomotion; assay: SCH-23390-induced hypolocomotion in mice; format: in vivo; conditions: Mus musculus; male NMRI mice, pretreated 0.5 h earlier; criterion total distance >2500 counts; read-out: ED50 reversal of SCH-23390-induced hypolocomotion
Protocol: SCH-23390-Induced Hypolocomotion in Mice
SCM-23390 (0.08 mg/kg, i.v.)-induced hypolocomotion was evaluated over a 30-min period starting immediately after the SCH-23390 challenge in male NMRI mice pretreated 0.5 h earlier with test compound or solvent. Averaged activity in solvent-treated control mice was 1540±559 counts (mean±SD; n=103). Criterion for drug-induced reversal of the SCH-23390-induced hypolocomotion: total distance: >2500 counts (2.9% false positives in controls).

[5] = molecular target: PDE1B (Homo sapiens, UniProt Q01064); assay: In vitro PDE selectivity assay, PDE1B; format: biochemical; conditions: Table 4a in vitro selectivity; read-out: IC50 PDE type 1B
Protocol: as §1

[6] = molecular target: PDE9A (Homo sapiens, UniProt O76083); assay: In vitro PDE selectivity assay, PDE9A; format: biochemical; conditions: Table 4a in vitro selectivity; read-out: IC50 PDE type 9A
Protocol: as §1

[7] = molecular target: T1, Rat recombinant PDE10A (rPDE10A2) (Rattus norvegicus, UniProt Q9QYJ6); assay: In vitro assay PDE10A (SPA, 3H-cAMP); format: biochemical
T1 construct: made in house; host or cells: Sf9 insect cells, baculovirus
T1 sequence (Q9QYJ6 1-794): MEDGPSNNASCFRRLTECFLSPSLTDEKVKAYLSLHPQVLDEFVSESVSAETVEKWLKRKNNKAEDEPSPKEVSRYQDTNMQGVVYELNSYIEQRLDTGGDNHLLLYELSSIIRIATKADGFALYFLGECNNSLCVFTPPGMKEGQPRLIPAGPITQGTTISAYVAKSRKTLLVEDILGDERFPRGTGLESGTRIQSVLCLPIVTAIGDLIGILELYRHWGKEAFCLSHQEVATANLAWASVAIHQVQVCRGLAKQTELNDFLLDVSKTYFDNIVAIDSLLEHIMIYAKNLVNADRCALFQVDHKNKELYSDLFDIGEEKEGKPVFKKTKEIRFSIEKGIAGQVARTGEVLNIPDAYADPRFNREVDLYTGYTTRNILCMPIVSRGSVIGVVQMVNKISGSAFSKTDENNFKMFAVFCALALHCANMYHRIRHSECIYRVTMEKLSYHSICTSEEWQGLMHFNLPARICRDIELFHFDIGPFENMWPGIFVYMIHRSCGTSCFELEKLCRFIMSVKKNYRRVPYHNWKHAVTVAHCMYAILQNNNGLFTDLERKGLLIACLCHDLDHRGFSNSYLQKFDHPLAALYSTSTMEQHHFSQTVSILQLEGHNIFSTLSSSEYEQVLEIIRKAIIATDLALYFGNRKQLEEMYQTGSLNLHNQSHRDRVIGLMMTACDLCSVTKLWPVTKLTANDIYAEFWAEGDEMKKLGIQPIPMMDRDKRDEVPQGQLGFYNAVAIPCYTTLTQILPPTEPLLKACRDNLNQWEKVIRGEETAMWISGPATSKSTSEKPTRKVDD
Method in brief: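 Purified Sf9-expressed rat PDE10A2 incubated 60 min at RT with 60 nM cAMP plus 0.008 μCi 3H-cAMP in 50 mM Tris pH 7.8, 8.3 mM MgCl2, 1.7 mM EGTA, 1% DMSO final. Product quantified by scintillation proximity counting against no-enzyme blanks and DMSO controls.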

[8] = molecular target: PDE4D (Homo sapiens, UniProt Q08499); assay: In vitro PDE selectivity assay, PDE4D; format: biochemical; conditions: Table 4a in vitro selectivity; read-out: IC50 PDE type 4D
Protocol: as §1

[9] = molecular target: PDE2A (Homo sapiens, UniProt O00408); assay: In vitro PDE selectivity assay, PDE2A; format: biochemical; conditions: Table 4a in vitro selectivity; read-out: IC50 PDE type 2A
Protocol: as §1

[10] = molecular target: PDE3A (Homo sapiens, UniProt Q14432); assay: In vitro PDE selectivity assay, PDE3A; format: biochemical; conditions: Table 4a in vitro selectivity; read-out: IC50 PDE type 3A
Protocol: as §1

[11] = molecular target: PDE7A (Homo sapiens, UniProt Q13946); assay: In vitro PDE selectivity assay, PDE7A; format: biochemical; conditions: Table 4a in vitro selectivity; read-out: IC50 PDE type 7A
Protocol: as §1

[12] = system: PCP-induced hyperlocomotion; assay: PCP-induced hyperlocomotion in rats (PCP); format: in vivo; conditions: Rattus norvegicus

PDE4D, sequence (Q08499 whole entry, species assumed): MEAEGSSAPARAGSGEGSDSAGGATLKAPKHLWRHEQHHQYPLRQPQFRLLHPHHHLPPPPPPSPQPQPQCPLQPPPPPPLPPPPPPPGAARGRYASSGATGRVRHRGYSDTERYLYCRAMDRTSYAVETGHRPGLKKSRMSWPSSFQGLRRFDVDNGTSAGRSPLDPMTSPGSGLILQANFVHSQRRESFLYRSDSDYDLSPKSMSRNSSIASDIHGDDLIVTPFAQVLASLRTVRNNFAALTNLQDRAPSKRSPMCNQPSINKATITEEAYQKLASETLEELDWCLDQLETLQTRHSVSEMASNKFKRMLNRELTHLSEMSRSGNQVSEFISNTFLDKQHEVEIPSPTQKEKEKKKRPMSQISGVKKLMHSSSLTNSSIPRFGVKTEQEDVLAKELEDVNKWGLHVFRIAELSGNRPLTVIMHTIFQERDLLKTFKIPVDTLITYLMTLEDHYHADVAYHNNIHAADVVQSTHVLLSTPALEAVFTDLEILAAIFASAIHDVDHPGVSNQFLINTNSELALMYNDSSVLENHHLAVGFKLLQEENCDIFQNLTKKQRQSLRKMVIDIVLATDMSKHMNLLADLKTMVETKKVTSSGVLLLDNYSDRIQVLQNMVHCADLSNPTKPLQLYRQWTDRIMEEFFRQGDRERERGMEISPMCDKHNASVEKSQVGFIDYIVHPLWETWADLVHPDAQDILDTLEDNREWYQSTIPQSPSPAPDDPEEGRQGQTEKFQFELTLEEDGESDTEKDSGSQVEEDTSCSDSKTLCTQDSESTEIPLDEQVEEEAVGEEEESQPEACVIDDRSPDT
PDE1B, sequence (Q01064 whole entry): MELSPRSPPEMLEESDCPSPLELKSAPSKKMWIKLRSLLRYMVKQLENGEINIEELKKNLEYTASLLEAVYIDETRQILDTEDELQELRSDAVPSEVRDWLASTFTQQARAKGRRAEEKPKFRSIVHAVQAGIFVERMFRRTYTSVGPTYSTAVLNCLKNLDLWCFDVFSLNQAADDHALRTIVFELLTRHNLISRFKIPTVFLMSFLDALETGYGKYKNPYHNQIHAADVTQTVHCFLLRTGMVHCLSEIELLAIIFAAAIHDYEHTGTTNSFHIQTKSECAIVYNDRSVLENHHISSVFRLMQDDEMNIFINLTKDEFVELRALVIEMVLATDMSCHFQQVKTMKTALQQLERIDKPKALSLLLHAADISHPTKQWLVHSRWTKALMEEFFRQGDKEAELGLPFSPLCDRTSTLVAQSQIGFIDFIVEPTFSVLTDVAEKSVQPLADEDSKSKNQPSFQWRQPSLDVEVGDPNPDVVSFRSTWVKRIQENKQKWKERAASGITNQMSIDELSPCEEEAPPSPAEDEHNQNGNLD
PDE11A, sequence (Q9HCR9 whole entry, species assumed): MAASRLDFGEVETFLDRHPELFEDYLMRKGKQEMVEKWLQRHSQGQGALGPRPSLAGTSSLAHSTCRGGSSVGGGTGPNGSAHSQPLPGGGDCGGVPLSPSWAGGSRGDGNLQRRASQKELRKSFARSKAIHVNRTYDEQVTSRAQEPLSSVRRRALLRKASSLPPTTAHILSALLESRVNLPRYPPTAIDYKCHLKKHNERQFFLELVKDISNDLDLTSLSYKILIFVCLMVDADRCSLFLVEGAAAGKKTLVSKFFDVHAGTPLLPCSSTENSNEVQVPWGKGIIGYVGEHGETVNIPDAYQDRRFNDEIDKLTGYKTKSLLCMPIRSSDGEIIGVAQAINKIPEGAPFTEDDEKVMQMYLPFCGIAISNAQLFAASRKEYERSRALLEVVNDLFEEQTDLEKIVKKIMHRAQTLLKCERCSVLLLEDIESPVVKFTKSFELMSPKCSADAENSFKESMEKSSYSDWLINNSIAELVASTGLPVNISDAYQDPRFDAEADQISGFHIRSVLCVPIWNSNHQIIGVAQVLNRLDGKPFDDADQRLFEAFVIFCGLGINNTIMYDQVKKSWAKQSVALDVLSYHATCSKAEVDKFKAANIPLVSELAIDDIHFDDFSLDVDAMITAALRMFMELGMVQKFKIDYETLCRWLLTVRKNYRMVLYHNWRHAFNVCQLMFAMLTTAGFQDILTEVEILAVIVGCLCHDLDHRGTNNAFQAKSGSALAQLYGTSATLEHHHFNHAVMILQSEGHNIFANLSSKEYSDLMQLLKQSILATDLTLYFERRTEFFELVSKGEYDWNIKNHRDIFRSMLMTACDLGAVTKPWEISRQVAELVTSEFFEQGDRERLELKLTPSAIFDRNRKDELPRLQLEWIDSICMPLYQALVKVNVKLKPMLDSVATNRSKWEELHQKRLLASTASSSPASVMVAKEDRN
PDE3A, sequence (Q14432 whole entry): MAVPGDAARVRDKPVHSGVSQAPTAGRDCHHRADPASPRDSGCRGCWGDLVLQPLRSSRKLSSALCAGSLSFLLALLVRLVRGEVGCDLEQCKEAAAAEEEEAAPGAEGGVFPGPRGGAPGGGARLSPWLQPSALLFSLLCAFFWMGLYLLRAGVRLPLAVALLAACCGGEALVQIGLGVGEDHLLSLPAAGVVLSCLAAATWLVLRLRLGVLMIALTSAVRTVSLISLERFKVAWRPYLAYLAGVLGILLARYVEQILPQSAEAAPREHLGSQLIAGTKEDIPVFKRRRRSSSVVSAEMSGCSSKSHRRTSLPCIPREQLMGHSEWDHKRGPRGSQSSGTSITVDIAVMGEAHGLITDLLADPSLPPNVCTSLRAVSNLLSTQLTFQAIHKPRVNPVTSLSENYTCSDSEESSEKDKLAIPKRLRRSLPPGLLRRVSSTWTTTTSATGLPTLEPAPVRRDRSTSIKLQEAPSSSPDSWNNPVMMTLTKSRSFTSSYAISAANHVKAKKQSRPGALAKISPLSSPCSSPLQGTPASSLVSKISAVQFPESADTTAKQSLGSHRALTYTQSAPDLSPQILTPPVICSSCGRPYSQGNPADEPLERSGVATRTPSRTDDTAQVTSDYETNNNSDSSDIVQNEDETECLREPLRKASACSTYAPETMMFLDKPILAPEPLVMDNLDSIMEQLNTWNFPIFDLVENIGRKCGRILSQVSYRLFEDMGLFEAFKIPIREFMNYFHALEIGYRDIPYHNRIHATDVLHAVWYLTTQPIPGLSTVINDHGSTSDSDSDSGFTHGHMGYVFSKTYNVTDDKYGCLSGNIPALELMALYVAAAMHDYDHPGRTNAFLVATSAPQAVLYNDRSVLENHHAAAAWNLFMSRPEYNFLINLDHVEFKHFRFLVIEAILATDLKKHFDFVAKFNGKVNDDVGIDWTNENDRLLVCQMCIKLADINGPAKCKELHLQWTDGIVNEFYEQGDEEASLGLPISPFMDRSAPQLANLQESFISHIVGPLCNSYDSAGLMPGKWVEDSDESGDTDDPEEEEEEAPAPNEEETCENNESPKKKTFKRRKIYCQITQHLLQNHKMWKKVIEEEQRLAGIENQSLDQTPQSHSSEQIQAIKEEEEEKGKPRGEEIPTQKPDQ
PDE9A, sequence (O76083 whole entry): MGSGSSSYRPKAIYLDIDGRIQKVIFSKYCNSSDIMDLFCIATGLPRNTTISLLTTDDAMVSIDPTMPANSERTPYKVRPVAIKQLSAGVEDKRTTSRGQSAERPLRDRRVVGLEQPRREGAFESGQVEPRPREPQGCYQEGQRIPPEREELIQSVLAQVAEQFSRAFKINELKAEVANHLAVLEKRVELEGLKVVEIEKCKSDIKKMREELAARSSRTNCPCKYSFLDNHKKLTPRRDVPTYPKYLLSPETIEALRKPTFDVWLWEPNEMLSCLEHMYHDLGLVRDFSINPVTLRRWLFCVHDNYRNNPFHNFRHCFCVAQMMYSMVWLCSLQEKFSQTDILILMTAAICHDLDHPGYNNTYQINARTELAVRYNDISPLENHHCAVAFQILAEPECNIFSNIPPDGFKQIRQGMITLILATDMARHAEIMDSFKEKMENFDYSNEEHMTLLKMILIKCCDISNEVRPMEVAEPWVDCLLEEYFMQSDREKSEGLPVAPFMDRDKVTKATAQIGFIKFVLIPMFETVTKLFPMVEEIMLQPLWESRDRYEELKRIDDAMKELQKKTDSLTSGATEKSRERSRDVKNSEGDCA
PDE2A, sequence (O00408 whole entry, species assumed): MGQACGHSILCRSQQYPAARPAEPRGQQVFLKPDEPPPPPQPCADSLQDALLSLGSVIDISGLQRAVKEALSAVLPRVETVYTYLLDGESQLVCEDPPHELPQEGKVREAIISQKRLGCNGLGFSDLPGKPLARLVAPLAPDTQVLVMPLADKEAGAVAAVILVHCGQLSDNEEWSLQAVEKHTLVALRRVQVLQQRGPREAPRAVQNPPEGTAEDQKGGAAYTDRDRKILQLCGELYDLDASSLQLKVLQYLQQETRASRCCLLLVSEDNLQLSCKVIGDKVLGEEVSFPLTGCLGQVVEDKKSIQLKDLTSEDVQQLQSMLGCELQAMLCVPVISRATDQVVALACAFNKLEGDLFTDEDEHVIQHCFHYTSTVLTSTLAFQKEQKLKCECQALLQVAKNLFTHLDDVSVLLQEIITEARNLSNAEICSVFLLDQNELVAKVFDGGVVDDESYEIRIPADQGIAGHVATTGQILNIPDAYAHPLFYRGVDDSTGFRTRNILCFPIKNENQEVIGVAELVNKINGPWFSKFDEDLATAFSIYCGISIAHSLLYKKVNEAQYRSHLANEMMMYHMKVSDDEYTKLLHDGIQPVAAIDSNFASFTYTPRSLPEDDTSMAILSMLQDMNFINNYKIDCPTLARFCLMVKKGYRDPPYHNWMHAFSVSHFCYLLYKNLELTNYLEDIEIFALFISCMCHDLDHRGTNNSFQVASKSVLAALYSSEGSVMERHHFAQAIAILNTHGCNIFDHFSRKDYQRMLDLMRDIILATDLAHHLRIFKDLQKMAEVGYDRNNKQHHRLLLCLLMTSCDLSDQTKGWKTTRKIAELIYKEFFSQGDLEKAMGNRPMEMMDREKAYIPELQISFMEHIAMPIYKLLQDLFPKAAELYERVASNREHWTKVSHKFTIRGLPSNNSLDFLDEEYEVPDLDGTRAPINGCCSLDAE

`Cc1nc2c(N3CCOCC3)nccn2c1-c1ccc(C2CCOCC2)nc1` [compound 25, 2-Methyl-8-morpholin-4-yl-3-[6-(tetrahydro-pyran-4-yl)-pyridin-3-yl]-imidazo[1,2-a]pyrazine] showed an IC50 [1] of 33.9 µM, an IC50 [2] of 66.1 µM and an IC50 [3] of 96.5 µM. It also gave an ED50 [4] of 7.1 mg/kg, an IC50 [5] of over 100 µM and an IC50 [6] of over 100 µM. It also gave an IC50 ([7]; Table 4a in vitro selectivity, read-out: IC50 PDE type 10A) of 0.16 µM, an IC50 ([7]; pIC50 corresponds to the -log IC50 expressed in mol/L, read-out: PDE10A2 pIC50 (converted)) of 0.191 µM and an IC50 [8] of 58.9 µM. It also gave an IC50 [9] of 42.7 µM, an IC50 [10] of 112 µM and an IC50 [11] of over 100 µM. It also gave an ED50 [12] of 2 mg/kg.
